Results published in US20060128762A1, “Medicinal composition and method for treating malignant tumor and utilization thereof” (D.Western Therapeutics Institute, priority 2002, published 2006).

How the values were obtained:
[1] = system: Murine Monocytic Leukemia P388; test: Antitumor effect on P388 murine monocytic leukemia transplanted into mouse (survival); assay type: in vivo; parameters: MST (median survival time): unit not given here; conditions: for MST (median survival time) / Survival number on day 50 / T/C (%): N = 6; for survival rate on day 5: administered alone
Description: Monocytic leukemia cell line P388 was purchased from Japanese Foundation for Cancer Research, Cancer Chemotherapy Center. The cryopreserved tumor was transplanted intraperitoneally into DBA/2 mouse (Japan SLC, Inc.). When the abdominal bloating was observed, ascites was removed and subjected to the test.
(§1) Compound 2 was weighed and ground down in an agate motor. It was then suspended slowly in the motor by adding 0.5% aqueous methylcellulose solution (M.C.) step by step to obtain 10 mg/ml suspension. The suspension was further diluted with M.C. to obtain a normal concentration and stored at 4° C. CDDP was dissolved and diluted with physiological saline. Immediately after preparation, the CDDP solution was subjected to test.
Male 4-week-old DBA/2 mice (n=10, 2 mice for the present test) and male 4-week-old CDF1 mice (DBA/2×BALB/c) (n=156) were purchased from Japan SLC, Inc., and used six animals per group. Animals were kept in a chamber maintained at room temperature of 21 to 25° C. and humidity of 45-65% with a given lighting time intervals (light period: 7:00 to 19:00; dark period: 19:00 to 7:00) and allowed to access freely to feed (F-2, Funabashi Nojo) and tap water. The animals purchased were used in the test after subjecting to taming and quarantine for 1 week.
The cryopreserved P388 cell lines were transplanted intraperitoneally into DBA/2 mouse. When the abdominal bloating was observed, ascites containing cancer cells were removed. The ascites was diluted with phosphate-buffered physiological saline (PBS, pH7.4) until the cell concentration became 5×10^6 cells/ml. The resultant solution (0.2 ml) was transplanted intraperitoneally into CDF1 mouse (1×10^6 cells/mouse). The drug was administered to mouse (0.1 ml/10 g body weight) on and after the next day of transplantation.
Compound 2 was administered orally and CDDP intraperitoneally. Animals of control group were untreated because of diversity of administration route and complexity of administration schedule.
The administration was started on the next day (day 1) of transplantation of tumor according to the protocol shown in Table 1, i.e., day 1; day 2; or day 1 and 2.

[2] = Stability of the suspension in 0.5% aqueous methylcellulose solution; assay type: physicochemical; conditions: suspension in 0.5% aqueous methylcellulose solution (M.C.), in a cold place
Description: as §1, with “test. It is assured that the suspension of Compound 2 in M.C. is homogeneous and stable for 14 days in a cold place.” for “test.”

[3] = Compound 2 25 mg/kg p.o on day 1
[4] = Compound 2 25 mg/kg p.o on day 2
[5] = Compound 2 50 mg/kg p.o on day 1
[6] = Compound 2 50 mg/kg p.o on day 2
[7] = Compound 2 100 mg/kg p.o on day 1
[8] = Compound 2 100 mg/kg p.o on day 2

N.N.[Cl][Pt][Cl] [CDDP, cis-platinum (II) diamine chloride, reference compound]
MST (median survival time) ([1]; CDDP 2.5 mg/kg i.p on day 1): 14.5 | Survival number on day 50 ([1]; CDDP 2.5 mg/kg i.p on day 1): 0 | T/C (%) ([1]; CDDP 2.5 mg/kg i.p on day 1): 145% | MST (median survival time) ([1]; CDDP 2.5 mg/kg i.p on day 2): 15.5 | Survival number on day 50 ([1]; CDDP 2.5 mg/kg i.p on day 2): 0 | T/C (%) ([1]; CDDP 2.5 mg/kg i.p on day 2): 155% | MST (median survival time) ([1]; CDDP 5 mg/kg i.p on day 1): 17 | Survival number on day 50 ([1]; CDDP 5 mg/kg i.p on day 1): 0 | T/C (%) ([1]; CDDP 5 mg/kg i.p on day 1): 170% | MST (median survival time) ([1]; CDDP 5 mg/kg i.p on day 2): 17 | Survival number on day 50 ([1]; CDDP 5 mg/kg i.p on day 2): 0 | T/C (%) ([1]; CDDP 5 mg/kg i.p on day 2): 170% | MST (median survival time) ([1]; CDDP 10 mg/kg i.p on day 1): 17 | Survival number on day 50 ([1]; CDDP 10 mg/kg i.p on day 1): 0 | T/C (%) ([1]; CDDP 10 mg/kg i.p on day 1): 170% | MST (median survival time) ([1]; CDDP 10 mg/kg i.p on day 2): 17 | Survival number on day 50 ([1]; CDDP 10 mg/kg i.p on day 2): 0 | T/C (%) ([1]; CDDP 10 mg/kg i.p on day 2): 170% | survival rate on day 5 [1]: not observed

COc1ccc(S(=O)(=O)N(C(C)=O)c2ccccc2/C=C/c2cc[n+]([O-])cc2)cc1 [Compound 2, (E)-4-[2-[2-[N-acetyl-N-[(p-methoxyphenyl)sulfonyl]-amino]phenyl]ethenyl]pyridine 1-oxide]
MST (median survival time) [1, 3]: 12.5 | Survival number on day 50 [1, 3]: 0 | T/C (%) [1, 3]: 125% | MST (median survival time) [1, 4]: 13 | Survival number on day 50 [1, 4]: 0 | T/C (%) [1, 4]: 130% | MST (median survival time) [1, 5]: 13 | Survival number on day 50 [1, 5]: 0 | T/C (%) [1, 5]: 130% | MST (median survival time) [1, 6]: 13 | Survival number on day 50 [1, 6]: 0 | T/C (%) [1, 6]: 130% | MST (median survival time) [1, 7]: 16.5 | Survival number on day 50 [1, 7]: 0 | T/C (%) [1, 7]: 165% | MST (median survival time) [1, 8]: 15 | Survival number on day 50 [1, 8]: 0 | T/C (%) [1, 8]: 150% | survival rate on day 5 [1]: not observed | time for which the suspension in M.C. is homogeneous and stable [2]: 14 days
